According to patent US20220273806A1, “USE OF FLUORINE-CONTAINING COMPOUND-MODIFIED CATIONIC POLYMER AS DRUG CARRIER AND PREPARATION METHOD” (SOOCHOW UNIVERSITY, priority 2020, published 2022):
Like-named read-outs stand apart in the source and are kept apart here.

Legend:
[1] = system: Balb/c mice
Description: Balb/c mice at week 6 in the hair prohibition period were selected, and on the day before treatment, the mice in the perfluoroheptanoic acid-modified chitosan-metformin group, free metformin group, and blank control group were removed of the equivalent hair on the back and photographed as shown in the figure. Each mouse was uniformly sprayed with the drug according to its own treatment method, and the drug was given once every two days, 100 microliters each time.

[2] = system: abdomen skin of mice; details: 1 mg/mL, first three hours
Description: In vitro diffusion cell construction: the abdomen skin of mice was removed, the fat layer was shaved off, and the skin was fixed on a diffusion cell. 7.5 mL PBS was added to the diffusion cell below the skin, and 0.75 mL perfluoroheptanoic acid-modified chitosan-tranexamic acid and the same concentration of pure tranexamic acid solution were respectively added to the diffusion cell above the skin.
Measurement of tranexamic acid penetration rate: 500 μL of PBS was removed from the bottom of the diffusion cell at 0, 1, and 3 h and the same volume of PBS was supplemented. The content of tranexamic acid was detected under the following HPLC conditions: methanol and 0.05 mol/L KH2PO4-0. 2% H3PO4 solution (volume ratio 5:95) as mobile phase, flow rate 1.0 mL/min, and detection wavelength 210 nm, and the cumulative penetration was calculated.

[3] = system: C57BL/6 mice; details: mouse, in vivo
Description: Experimental designers used adriamycin, epirubicin (THP) and fluorescent dye rhodamine B as a bladder perfusion drug respectively to mix with chitosan (1% acetic acid aqueous solution) to prepare chitosan bladder perfusion drug systems. After 1 h of bladder perfusion, the bladder tissue was removed, frozen sections were prepared, the fluorescence intensity of the drug was analyzed with a confocal fluorescence microscope, and the distribution of the drug in the bladder tissue was investigated. […] In order to further investigate the biological safety of chitosan as a drug carrier for perfusion, the designers of the project perfused the mouse bladder with a 15 mg/ml chitosan aqueous solution, stopped the perfusion after 1 h, continued to raise the mice under normal feeding conditions, and recorded the mice weight. […] After dissection, the bladder of the mice in the experimental group was compared with that of the mice in the control group.
Healthy C57BL/6 mice aged 10-12 weeks were divided into three groups, 8 mice/each group. The experimental group was perfused with 15 mg/ml fluorinated chitosan or 1% chitosan in aqueous acetic acid solution for 1 h, once a week for three weeks, and the blank control group was perfused with equal volume of double distilled water. […]

[4] = system: mouse eye; details: in vivo
Description: In order to evaluate the penetrating ability for the cornea, the cornea was subjected to immunofluorescence staining at different time points to observe the penetrating ability. Samples were taken 5 min, 15 min, 30 min, and 60 min after the drug with perfluoroheptanoic acid-modified chitosan was applied. Frozen sections were prepared, and the nuclei of the sections were stained and observed under a confocal microscope as shown in FIG. 4-7. Herein, the red is the fluorescence of the protein label, and the blue is the nucleus of the eye tissue.

In the case of `CN(C)C(=N)N=C(N)N` [Metformin, metformin], the “hair growth on the back” value ([1]; Day 0) is reported as “No hair”, the “hair growth on the back” value ([1]; Day 11) is reported as “No hair” and the “hair growth on the back” value ([1]; Day 13) is reported as “No hair”. The “hair growth on the back” value ([1]; Day 17) was “No hair”.

In the case of `NC[C@H]1CC[C@H](C(=O)O)CC1` [pure tranexamic acid, tranexamic acid], the “cumulative penetration of tranexamic acid” value [2] is reported as “substantially does not penetrate”.

In the case of chitosan, the “bladder HE staining and CD45 and Ki67 immunofluorescence” value [3] is reported as “severe inflammatory stress and congestion and edema” and the “bladder HE staining and CD45 and Ki67 immunofluorescence, mucosal and epithelial damage” value [3] is reported as “severe inflammatory stress and congestion and edema”.

With “free protein: bovine serum albumin labeled Cy5.5 without fluorine-containing chitosan” the “penetration into the corneal epithelial cells” value [4] was “substantially does not enter”.
